Key:
[1] = tested on: interleukin 6 (IL-6) on normal human keratinocytes (HK); test: Anti-inflammatory effect: IL-6 (ELISA) in normal human keratinocytes after UV-B irradiation; type: cell-based; settings: for HK % change (IL-6 vs. tests without UV exposure): UV-B 50 mJ.cm^−2, 24 hours
Procedure: (§1) Principle and test implementation: it is possible to estimate a degree of inflammation by determining the quantity of mediators such as prostaglandins, leukotrienes or interleukins. In this example, we selected assay of interleukin 6 (IL-6) on normal human fibroblasts (HF) and keratinocytes (HK) in culture following exposure to UV-B irradiation. Broadly speaking, the cells were cultured in a conventional culture medium (DMEMc+10% FCS) for periods of 24 hours for HF and 1 week for HK. After elimination of the buffer and 2 successive washings with phosphate buffer solution, the cells were exposed to UV-B irradiation at a standardized energy level of 50 mJ.cm^−2. The buffer was then rapidly eliminated and replaced by the same culture medium as that used at the start of the experiment, but containing the test extracts at the prerequisite concentrations or DMSO for the control series. After 24 hours, the culture medium was harvested and IL-6 concentration determined using a standard ELISA method. An additional series was conducted using the same protocol but without UV-B irradiation in order to determine the baseline level and control the stability of the study system. All the assays were conducted in triplicate.

[2] = tested on: interleukin 6 (IL-6) on normal human fibroblasts (HF); test: Anti-inflammatory effect: IL-6 (ELISA) in normal human fibroblasts after UV-B irradiation; type: cell-based; settings: for HF % change (IL-6 vs. tests without UV exposure): UV-B 50 mJ.cm^−2, 24 hours
Procedure: as §1

P. acnes = test: Antibacterial effect, agar incorporation, strain D; type: cell-based, Propionibacterium acnes; set-up: key to bacterial growth, strain D: ‘+’ = bacterial growth; ‘−’ = no bacterial growth; settings: for bacterial growth, strain D: 24 h (same at 48 h), equivalent to 5% premix
Procedure: (§2) Test Principle and Implementation: 1 mL of the premix in example No. 1 or its constituents at concentrations equivalent to 5% of the premix were incorporated in molten agar medium (BioMérieux) plated in a Petri dish. […] The plates were then incubated at 37° C. for 24 and 48 hours and inspected visually. Five strains, Corynebacterium minutissimum, Propionibacterium acnes, Staphylococcus aureus, Staphylococcus hominis and Acinetobacterium calcoaceticus were studied.

5α-reductase [3] = test: Inhibition of 5α-reductase, HPLC determination of testosterone, in vitro; type: biochemical; settings: for % inhibition: mean±SEM, 5 assays
Procedure: Principle and implementation of the test: the aim of this test was to confirm the previous result but using an HPLC analysis method. Unlike 5-DHT, testosterone absorbs light at the wavelength used (245 nm). The decrease in testosterone peak area (which was characterized under our operating conditions by a retention time of 26 minutes) reflects the reduction of the concentration of the compound in the study medium and thus reflects 5α-reductase activity.
The same type of protocol as in the previous example was used, but instead of determining the absorbances, the reaction media were analyzed by HPLC.

[4] = tested on: Acinetobacterium calcoaceticus; test: Antibacterial effect, agar incorporation, strain E; type: cell-based; set-up: key to bacterial growth, strain E: ‘+’ = bacterial growth; ‘−’ = no bacterial growth; settings: for antimicrobial activity: A. calcoaceticus; for bacterial growth, strain E: 24 h (same at 48 h), equivalent to 5% premix
Procedure: as §2

5α-reductase [5] = test: Inhibition of 5α-reductase, enzymatic assay (NADPH absorbance at 340 nm), in vitro; type: biochemical; settings: for % inhibition: mean±SEM, 5 assays
Procedure: Principle and implementation of the test (adapted from Zy and Zu, 1998):
Testosterone is irreversibly metabolized by 5α-reductase to […] (5-DHT) in the presence of the cofactor NADPH. The reaction is monitored, at 37° C., by determining, using a spectrophotometer, the reduction in the absorbance of the reaction medium at 340 nm, due to the conversion of NADPH to NADP.
The test thus consists in mixing testosterone, NADPH and the test product or its vehicle alone (control reaction). After 3 minutes to allow the system to equilibrate, the baseline absorbance of the system is determined. Then the reaction is triggered by addition of the enzyme, 5α-reductase. After 10 minutes, a second determination of the absorbance, final absorbance, is conducted. The difference between the two measurements reflects the quantity of NADPH consumed. That quantity is proportional to the quantity of testosterone converted to 5-DHT.

[6] = tested on: normal human keratinocytes (HK); test: Antiproliferative effect on keratinocytes (DNA quantity, Hoechst 33258); type: cell-based; settings: for % inhibition (quantity of DNA, number of cells): 1 week culture
Source text: Test principle and implementation: since the quantity of DNA is constant for each cell, the determination of the overall quantity of DNA is equivalent to measuring the number of cells used for the determination. This principle enables routine use of more refined but very cumbersome methodologies to be avoided. Various methods have been developed on the basis of this protocol, of which, in particular, that used herein. When bound to DNA with a constant and known stereochemistry, the fluorophore, Hoechst 33258, presents, first, increased fluorescence, but also an emission spectrum shift from 492 to 458 nm. By means of comparison with pre-established sets of standards, the concomitant monitoring of the above 2 parameters enables quantification of the quantity of DNA present in the cell samples studied. Broadly speaking, normal human keratinocytes (HK) are cultured in a classic culture medium (DMEMc+10% FCS) for 1 week, in the absence of the test product (control series in order to determine the baseline cell proliferation of the system studied) or in the presence of the test products alone or in combination. Fluorophore Hoechst 33258 was added at the end of the protocol before withdrawing cell aliquots for assay. The assays were conducted in triplicate as 3 mutually independent assays.

Staphylococcus aureus = test: Antibacterial effect, agar incorporation, strain C; type: cell-based; set-up: key: ‘+’ = bacterial growth; ‘−’ = no bacterial growth; settings: 24 h (same at 48 h), equivalent to 5% premix
Procedure: as §2

Staphylococcus hominis = test: Antibacterial effect, agar incorporation, strain B; type: cell-based; set-up: key to bacterial growth, strain B: ‘+’ = bacterial growth; ‘−’ = no bacterial growth; settings: for bacterial growth, strain B: 24 h (same at 48 h), equivalent to 5% premix
Procedure: as §2

[7] = tested on: Corynebacterium minutissimum; test: Antibacterial effect, agar incorporation, strain A; type: cell-based; set-up: key: ‘+’ = bacterial growth; ‘−’ = no bacterial growth; settings: 24 h (same at 48 h), equivalent to 5% premix
Procedure: as §2

[8] = [c] 0.01%, listed as nordihydroguaiaretic acid

**Q.** With `CC1(C)CC[C@]2(C(=O)O)CC[C@]3(C)C(=CC[C@@H]4[C@@]5(C)CC[C@H](O)C(C)(C)[C@@H]5CC[C@]43C)[C@@H]2C1` [Oleanolic acid, oleanolic acid] as the compound, how does the “activity in the test, HK” value [1] read?
**A.** devoid of activity

**Q.** And the “HK % change (IL-6 vs. tests without UV exposure)” value ([1]; [c] 0.01%)?
**A.** +461 ± 16%

**Q.** And the “HK % change (IL-6 vs. tests without UV exposure)” value ([1]; [c] 0.03%)?
**A.** +444 ± 14%

**Q.** And the “HK % change (IL-6 vs. tests without UV exposure)” value ([1]; [c] 0.1%)?
**A.** +450 ± 14%

**Q.** And the “activity in the test, HF” value [2]?
**A.** devoid of activity

**Q.** And the “HF % change (IL-6 vs. tests without UV exposure)” value ([2]; [c] 0.01%)?
**A.** +455 ± 14%

**Q.** And the “HF % change (IL-6 vs. tests without UV exposure)” value ([2]; [c] 0.03%)?
**A.** +437 ± 12%

**Q.** What about the “HF % change (IL-6 vs. tests without UV exposure)” value ([2]; [c] 0.1%) of the same compound?
**A.** +441 ± 18%

**Q.** And the “antimicrobial activity” value (P. acnes; P. acnes)?
**A.** selective antimicrobial activity

**Q.** What about the “% inhibition” value (5α-reductase [3]; [c] 0.01%) of the same compound?
**A.** 10.9 ± 1.4%

**Q.** What about the “% inhibition” value (5α-reductase [3]; [c] 0.03%) of the same compound?
**A.** 25.6 ± 2.0%

**Q.** And the “% inhibition” value (5α-reductase [3]; [c] 0.1%)?
**A.** 48%

**Q.** And the “% inhibition” value (5α-reductase [3]; [c] 0.1%, listed as Oleanolic acid (obtained from olive tree leaves))?
**A.** 47.7 ± 3.8%

**Q.** And the “antimicrobial activity” value [4]?
**A.** selective antimicrobial activity

**Q.** What about the “% inhibition” value (5α-reductase [5]; [c] 0.01%) of the same compound?
**A.** 16.7 ± 1.1%

**Q.** What about the “% inhibition” value (5α-reductase [5]; [c] 0.03%) of the same compound?
**A.** 31.7 ± 2.9%

**Q.** What about the “% inhibition” value (5α-reductase [5]; [c] 0.1%) of the same compound?
**A.** 56.3 ± 2.6%

**Q.** What about the “% inhibition” value (5α-reductase [5]; [c] 0.1%, listed as oleanolic acid) of the same compound?
**A.** 56%

**Q.** What about the “activity in the test” value [6] of the same compound?
**A.** devoid of activity

**Q.** And the “% inhibition (quantity of DNA, number of cells)” value ([6]; [c] 0.01%)?
**A.** 0.9 ± 1.0%

**Q.** And the “% inhibition (quantity of DNA, number of cells)” value ([6]; [c] 0.03%)?
**A.** 1.1 ± 1.6%

**Q.** What about the “% inhibition (quantity of DNA, number of cells)” value ([6]; [c] 0.1%) of the same compound?
**A.** 0.7 ± 0.7%

**Q.** With `Oc1cc(Cl)ccc1Oc1ccc(Cl)cc1Cl` [Trichlosan] as the compound, how does the “bacterial growth, strain C” value (Staphylococcus aureus; 10^4 bacteria/mL) read?
**A.** −

**Q.** What about the “bacterial growth, strain C” value (Staphylococcus aureus; 10^5 bacteria/mL) of the same compound?
**A.** −

**Q.** What about the “bacterial growth, strain D” value (P. acnes; 10^4 bacteria/mL) of the same compound?
**A.** −

**Q.** What about the “bacterial growth, strain D” value (P. acnes; 10^5 bacteria/mL) of the same compound?
**A.** −

**Q.** And the “bacterial growth, strain B” value (Staphylococcus hominis; 10^4 bacteria/mL)?
**A.** −

**Q.** What about the “bacterial growth, strain B” value (Staphylococcus hominis; 10^5 bacteria/mL) of the same compound?
**A.** −

**Q.** And the “bacterial growth, strain E” value ([4]; 10^4 bacteria/mL)?
**A.** −

**Q.** And the “bacterial growth, strain E” value ([4]; 10^5 bacteria/mL)?
**A.** −

**Q.** And the “bacterial growth, strain A” value ([7]; 10^4 bacteria/mL)?
**A.** −

**Q.** What about the “bacterial growth, strain A” value ([7]; 10^5 bacteria/mL) of the same compound?
**A.** −

**Q.** What does the source list for `CC(Cc1ccc(O)c(O)c1)C(C)Cc1ccc(O)c(O)c1` (stereo not drawn) [NDGA, nordihydroguaiaretic acid]?
**A.** inhibition vs. irradiated control (HK) ([1]; 0.01%): 14%; HK % change (IL-6 vs. tests without UV exposure) ([1]; [c] 0.01%): +388 ± 10%; HK % change (IL-6 vs. tests without UV exposure) [1, 8]: +388%; HK % change (IL-6 vs. tests without UV exposure) ([1]; [c] 0.04%): +201 ± 10%; HK % change (IL-6 vs. tests without UV exposure) ([1]; [c] 0.1%): +91 ± 14%; inhibition vs. irradiated control (HF) ([2]; 0.01%): 19%; HF % change (IL-6 vs. tests without UV exposure) ([2]; [c] 0.01%): +356 ± 18%; HF % change (IL-6 vs. tests without UV exposure) [2, 8]: +356%; HF % change (IL-6 vs. tests without UV exposure) ([2]; [c] 0.04%): +155 ± 9%; HF % change (IL-6 vs. tests without UV exposure) ([2]; [c] 0.1%): +87 ± 7%; antimicrobial activity (Staphylococcus hominis; S. hominis): selective antimicrobial activity; activity in the test (5α-reductase [3]): no activity; % inhibition (5α-reductase [3]; [c] 0.01%): 1.2 ± 0.4%; % inhibition (5α-reductase [3]; [c] 0.04%): 1.0 ± 0.9%; % inhibition (5α-reductase [3]; [c] 0.1%): 0.9 ± 0.7%; antimicrobial activity [4]: selective antimicrobial activity; activity in the test (5α-reductase [5]): no activity; % inhibition (5α-reductase [5]; [c] 0.01%): 2.1 ± 1.6%; % inhibition (5α-reductase [5]; [c] 0.04%): 3.7 ± 2.9%; % inhibition (5α-reductase [5]; [c] 0.1%): 3.0 ± 1.9%; % inhibition (quantity of DNA, number of cells) ([6]; [c] 0.04%): 22.3 ± 1.9%; % inhibition (quantity of DNA, number of cells) ([6]; [c] 0.1%): 29.9 ± 1.7%

From patent US7182963B2, “Cosmetic and dermopharmaceutical compositions for skin prone to acne” (priority 2001, dated 2007)
